Reference: ChEMBL document CHEMBL1201862, “PubChem BioAssay data set” (2004)
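Five concentrations, 48 hours, 96-well plates. Here, GI50 denotes the concentration required for 50% inhibition of growth.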 Activity calls are given as the source filed them. Cut-off read from the data, not from the text of the source: active = GI50 up to about 1.1 µM and inactive = higher.

Key:
Assay in all cases: NCI-60 cell line screen, 48 h
HCC 2998 = test system: HCC 2998
SK-MEL-2 = test system: SK-MEL-2
PC-3 = test system: PC-3
SW-620 = test system: SW-620
HOP-92 = test system: HOP-92
IGROV-1 = test system: IGROV-1
DU-145 = test system: DU-145
HT-29 = test system: HT-29
SF-268 = test system: SF-268
UO-31 = test system: UO-31
MOLT-4 = test system: MOLT-4
SR = test system: SR
MDA-MB-231 = test system: MDA-MB-231
CAKI-1 = test system: CAKI-1
OVCAR-4 = test system: OVCAR-4
NCI-H23 = test system: NCI-H23
TK-10 = test system: TK-10
COLO 205 = test system: COLO 205
NCI/ADR-RES = test system: NCI/ADR-RES
RXF 393 = test system: RXF 393
NCI-H460 = test system: NCI-H460
MDA-MB-435 = test system: MDA-MB-435
KM12 = test system: KM12
UACC-257 = test system: UACC-257
HCT-15 = test system: HCT-15
SN12C = test system: SN12C
RPMI-8226 = test system: RPMI-8226
BT-549 = test system: BT-549
ACHN = test system: ACHN
CCRF-CEM = test system: CCRF-CEM
A498 = test system: A498
K562 = test system: K562
786-0 = test system: 786-0
M14 = test system: M14
HCT-116 = test system: HCT-116
OVCAR-3 = test system: OVCAR-3
Malme-3M = test system: Malme-3M
SK-MEL-5 = test system: SK-MEL-5
HOP-62 = test system: HOP-62
A549 = test system: A549
SK-OV-3 = test system: SK-OV-3
OVCAR-5 = test system: OVCAR-5
MDA-N = test system: MDA-N
NCI-H226 = test system: NCI-H226
T47D = test system: T47D
SNB-75 = test system: SNB-75
SF-539 = test system: SF-539
NCI-H522 = test system: NCI-H522
U-251 = test system: U-251
MCF7 = test system: MCF7
SF-295 = test system: SF-295
OVCAR-8 = test system: OVCAR-8
Hs-578T = test system: Hs-578T
UACC-62 = test system: UACC-62
SK-MEL-28 = test system: SK-MEL-28
SNB-19 = test system: SNB-19
EKVX = test system: EKVX
HL-60 = test system: HL-60
LOX IMVI = test system: LOX IMVI

O=C1CC(=O)NC(NN2C(=O)/C(=C/c3ccc(Cl)c(Cl)c3)N=C2c2ccccc2)=N1
GI50 (HCC 2998): 19.7 µM (inactive) | GI50 (SK-MEL-2): 14.1 µM (inactive) | GI50 (PC-3): 23.1 µM (inactive) | GI50 (SW-620): 30.4 µM (inactive) | GI50 (HOP-92): 27 µM (inactive) | GI50 (IGROV-1): 31.1 µM (inactive) | GI50 (DU-145): 48.2 µM (inactive) | GI50 (HT-29): 22.9 µM (inactive) | GI50 (SF-268): 24.5 µM (inactive) | GI50 (UO-31): 29.6 µM (inactive) | GI50 (MOLT-4): 15.2 µM (inactive) | GI50 (SR): 11.7 µM (inactive) | GI50 (MDA-MB-231): 17.1 µM (inactive) | GI50 (CAKI-1): 85.3 µM (inactive) | GI50 (OVCAR-4): 49.3 µM (inactive) | GI50 (NCI-H23): 26.7 µM (inactive) | GI50 (TK-10): 41.9 µM (inactive) | GI50 (COLO 205): 18.8 µM (inactive) | GI50 (NCI/ADR-RES): 19.8 µM (inactive) | GI50 (RXF 393): 24.8 µM (inactive) | GI50 (NCI-H460): 15.7 µM (inactive) | GI50 (MDA-MB-435): 27 µM (inactive) | GI50 (KM12): 16.4 µM (inactive) | GI50 (UACC-257): 34.2 µM (inactive) | GI50 (HCT-15): 30.3 µM | GI50 (SN12C): 17.3 µM (inactive) | GI50 (RPMI-8226): 13.6 µM (inactive) | GI50 (BT-549): 20.7 µM (inactive) | GI50 (ACHN): 40.2 µM (inactive) | GI50 (CCRF-CEM): 11.9 µM (inactive) | GI50 (A498): 23.4 µM (inactive) | GI50 (K562): 13.7 µM (inactive) | GI50 (786-0): 26.9 µM (inactive) | GI50 (M14): 28.8 µM (inactive) | GI50 (HCT-116): 17.7 µM (inactive) | GI50 (OVCAR-3): 19.1 µM (inactive) | GI50 (Malme-3M): 34.8 µM (inactive) | GI50 (SK-MEL-5): 16.3 µM (inactive) | GI50 (HOP-62): 23.9 µM (inactive) | GI50 (A549): 27.2 µM (inactive) | GI50 (SK-OV-3): 46.8 µM (inactive) | GI50 (OVCAR-5): 46.7 µM (inactive) | GI50 (MDA-N): 23.9 µM (inactive) | GI50 (NCI-H226): 32.1 µM (inactive) | GI50 (T47D): 47.1 µM (inactive) | GI50 (SNB-75): 24 µM (inactive) | GI50 (SF-539): 20.8 µM (inactive) | GI50 (NCI-H522): 30.8 µM (inactive) | GI50 (U-251): 23.9 µM (inactive) | GI50 (MCF7): 16.7 µM (inactive) | GI50 (SF-295): 32 µM (inactive) | GI50 (OVCAR-8): 34 µM (inactive) | GI50 (Hs-578T): 18.4 µM (inactive) | GI50 (UACC-62): 15.7 µM (inactive) | GI50 (SK-MEL-28): 28.8 µM (inactive)

C=CCC(CNC(=O)OCc1ccccc1)OC(=O)OCc1ccccc1 (stereo not drawn)
GI50 (HCC 2998): > 100 µM (inactive) | GI50 (SK-MEL-2): 48.2 µM (inactive) | GI50 (PC-3): 48.3 µM (inactive) | GI50 (SW-620): > 100 µM (inactive) | GI50 (HOP-92): 52.6 µM (inactive) | GI50 (SNB-19): > 100 µM (inactive) | GI50 (IGROV-1): > 100 µM (inactive) | GI50 (DU-145): > 100 µM (inactive) | GI50 (HT-29): 36.3 µM (inactive) | GI50 (SF-268): > 100 µM (inactive) | GI50 (UO-31): > 100 µM (inactive) | GI50 (MOLT-4): 25.8 µM (inactive) | GI50 (SR): 21.8 µM (inactive) | GI50 (MDA-MB-231): > 100 µM (inactive) | GI50 (CAKI-1): > 100 µM (inactive) | GI50 (OVCAR-4): 69.8 µM (inactive) | GI50 (NCI-H23): 43.9 µM (inactive) | GI50 (TK-10): > 100 µM (inactive) | GI50 (COLO 205): 39.1 µM (inactive) | GI50 (NCI/ADR-RES): > 100 µM (inactive) | GI50 (RXF 393): > 100 µM (inactive) | GI50 (NCI-H460): > 100 µM (inactive) | GI50 (MDA-MB-435): 57 µM (inactive) | GI50 (KM12): 48.1 µM (inactive) | GI50 (UACC-257): 73.3 µM (inactive) | GI50 (HCT-15): 74.3 µM | GI50 (SN12C): > 100 µM (inactive) | GI50 (RPMI-8226): 26.1 µM (inactive) | GI50 (BT-549): > 100 µM (inactive) | GI50 (EKVX): 33.4 µM (inactive) | GI50 (ACHN): > 100 µM (inactive) | GI50 (CCRF-CEM): 47.4 µM (inactive) | GI50 (A498): > 100 µM (inactive) | GI50 (K562): 37.3 µM (inactive) | GI50 (786-0): 91.2 µM (inactive) | GI50 (M14): > 100 µM (inactive) | GI50 (HCT-116): 51.9 µM (inactive) | GI50 (OVCAR-3): 63.2 µM (inactive) | GI50 (SK-MEL-5): 22 µM (inactive) | GI50 (HOP-62): > 100 µM (inactive) | GI50 (A549): 51.3 µM (inactive) | GI50 (SK-OV-3): > 100 µM (inactive) | GI50 (OVCAR-5): > 100 µM (inactive) | GI50 (MDA-N): 47.1 µM (inactive) | GI50 (NCI-H226): > 100 µM (inactive) | GI50 (T47D): 47.8 µM (inactive) | GI50 (SNB-75): > 100 µM (inactive) | GI50 (SF-539): > 100 µM (inactive) | GI50 (HL-60): 34 µM (inactive) | GI50 (NCI-H522): 62.1 µM (inactive) | GI50 (U-251): > 100 µM (inactive) | GI50 (MCF7): 39.1 µM (inactive) | GI50 (SF-295): 55.5 µM (inactive) | GI50 (OVCAR-8): 69 µM (inactive) | GI50 (Hs-578T): > 100 µM (inactive) | GI50 (LOX IMVI): > 100 µM (inactive) | GI50 (UACC-62): 93.5 µM (inactive) | GI50 (SK-MEL-28): > 100 µM (inactive)
